Measurements as given in ChEMBL document CHEMBL4330166, “Euphorhelipanes A and B, Triglyceride-Lowering Euphorbia Diterpenoids with a Bicyclo[4.3.0]nonane Core from Euphorbia helioscopia” (J Nat Prod, 2019).
Activity calls are given as the source filed them. The rule behind the calls is not given here.

Legend:
Huh-7 [1] = test: Inhibition of oleic acid-induced triglyceride accumulation in human HuH7 cells after 24 hrs; type: functional, cell-based
Huh-7 [2] = test: Inhibition of oleic acid-induced triglyceride accumulation in human HuH7 cells up to 50 uM after 24 hrs by Oil Red O staining based assay; type: functional, cell-based
Huh-7 [3] = test: Cytotoxicity against human HuH7 cells after 24 hrs by LDH release assay; type: cell-based; conditions: huh-7, 24 h

Structure (SMILES)	inhibition (Huh-7 [1])	inhibition (Huh-7 [2])	Activity (Huh-7 [3])
CC(=O)C(C)(C)/C=C/[C@@H](C)[C@@]1(O)C(=O)[C@H]2[C@@H](C=C[C@@H]2C)[C@H](C)[C@@H]1O	Dose-dependent effect	Active	Non-Toxic
CC(=O)C(C)(C)/C=C/[C@H](C)[C@@]1(O)C(=O)[C@H]2[C@@H](C=C[C@@H]2C)[C@H](C)[C@@H]1O	Dose-dependent effect	Active	Non-Toxic
